Columns and labels:
[1] = biological target: T1, HUWE1^HECT (Homo sapiens, UniProt Q7Z6Z7); assay: Single-turnover assay, Ub thioester transfer from E2 to HUWE1^HECT; type: biochemical; conditions: HECT^Δ4 variant
T1 construct: HUWE1^HECTΔ4 (residues 3993–4370); made in house
T1 sequence (Q7Z6Z7 3993-4370): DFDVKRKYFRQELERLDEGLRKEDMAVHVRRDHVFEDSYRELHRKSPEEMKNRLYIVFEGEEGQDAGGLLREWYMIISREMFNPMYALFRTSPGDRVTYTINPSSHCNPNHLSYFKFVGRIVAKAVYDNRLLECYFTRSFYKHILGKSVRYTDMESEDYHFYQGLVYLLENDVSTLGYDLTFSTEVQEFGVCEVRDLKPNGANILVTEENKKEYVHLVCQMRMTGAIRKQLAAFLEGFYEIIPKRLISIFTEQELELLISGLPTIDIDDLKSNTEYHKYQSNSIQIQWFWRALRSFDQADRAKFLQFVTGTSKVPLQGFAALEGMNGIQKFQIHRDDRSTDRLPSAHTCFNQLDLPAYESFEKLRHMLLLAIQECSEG
Procedure: E3-free multi-turnover ubiquitination reactions to monitor E1 and E2 activities contained 1 μM UBA1, 5 μM UBE2L3, 100 μM Ub, 2 mM ATP and 10 mM MgCl2 in 25 mM HEPES (pH 7.4), and 0.2 mM TCEP. Reactions were incubated at 30 °C for 10 min (or otherwise, as specified) and quenched with 50 mM EDTA, followed by the addition of SDS-loading dye. Single-turnover E2~Ub discharge assays were performed similarly to previous studies. In short, 1 μM UBA1, 5 μM UBE2L3, and 100 μM Ub were pre-incubated with 2 mM ATP and 10 mM MgCl2 in 25 mM HEPES (pH 7.4) at 30 °C for 30 min, diluted 4-fold, and quenched with 50 mM EDTA. Thereafter, 1.2 μM of the UBE2L3~Ub product was incubated with 5 μM HUWE1^HECT at 30 °C for 1 min.

[2] = biological target: T2, HUWE1^HECT (Homo sapiens, UniProt Q7Z6Z7); assay: HDX-MS of HUWE1^HECT with inhibitors; type: binding; conditions: 10-fold molar excess of inhibitor
T2 construct: the isolated HECT domain of HUWE1 (HUWE1^HECT); made in house
T2 sequence (Q7Z6Z7 4038-4374 limits assumed): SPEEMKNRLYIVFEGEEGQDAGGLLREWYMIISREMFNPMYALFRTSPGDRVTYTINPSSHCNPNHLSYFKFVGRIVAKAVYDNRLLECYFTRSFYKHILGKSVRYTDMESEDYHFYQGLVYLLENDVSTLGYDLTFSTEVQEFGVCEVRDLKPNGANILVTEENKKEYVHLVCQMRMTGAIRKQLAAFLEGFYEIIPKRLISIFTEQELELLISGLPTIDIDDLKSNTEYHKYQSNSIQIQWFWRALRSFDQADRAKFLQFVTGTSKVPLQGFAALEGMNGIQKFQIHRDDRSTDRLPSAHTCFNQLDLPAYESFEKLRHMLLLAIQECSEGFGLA
Procedure: Two experiments were performed: 50 μM HUWE1^HECT (1) or HUWE1^HECT-Ub conjugate (2) were incubated with 500 μM of BI8626 or BI8622 for 1 h on ice prior HDX-MS. Individual HDX reactions were generated with a 2-arm autosampler (LEAP Technologies) by mixing 6.5 μL sample with 58.5 μL of HDX buffer (20 mM HEPES pH 8.0, 150 mM NaCl, 5 mM DTT) prepared with 99.9% D2O, incubation at 25 °C for various times, before quenching by mixing 55 μL with an equal volume of 400 mM KH2PO4/H3PO4 (pH 2.2) and 2 M guanidine-HCl (precooled at 1 °C). Non-deuterated samples were generated analogously by 10-fold dilution with H2O-based buffer. […] For each protein state and time-point, three individual HDX reactions were measured.
Peptide identification and HDX analysis was performed with ProteinLynx Global SERVER v.3.0.1 (PLGS; Waters) and DynamX v.3.0 (Waters), as described previously. […] Only peptides with an intensity >10,000 counts, ≤ 30 residues, ≥ 2 products with ≥ 0.05 products/residue, ≤ 25 ppm mass error and retention time tolerance of 0.5 min were analysed. […] The maximal deuterium uptake of a given peptide was calculated by the number of residues minus one for the N-terminal residue and minus the number of prolines. […]

[3] = set-up: method as in PMID 25253726; conditions: cited from earlier work

| Compound | Ub transfer from the E2 to HUWE1^HECT [1] | Binding to HUWE1^HECT by HDX-MS [2] | Pharmacokinetic properties [3] |
| --- | --- | --- | --- |
| Cc1c(C(=O)Nc2ccc(CN)cc2)ncnc1N1CCC(C#N)(c2ccccc2)CC1 [BI8622] | do not obstruct Ub transfer from the E2 to HUWE1^HECT | did not provide evidence of binding | do not allow for in vivo applications |
| NCc1cccc(CNc2ncnc3c(N4CCN(Cc5ccccc5)CC4)ncnc23)c1 [BI8626] | do not obstruct Ub transfer from the E2 to HUWE1^HECT | did not provide evidence of binding | do not allow for in vivo applications |
